Measurements: PubChem BioAssay (NCI)
Where “and” joins values, the source holds several entries; their conditions need not be identical. Equal values may be shown once.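 These data come from cells grown in 96-well plates and exposed to compound for 48 hours at five concentrations. GI50: concentration for 50% inhibition of growth. TGI marks complete inhibition of growth.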

How the values were obtained:
Assay in all cases: NCI tumour cell line growth inhibition, 48 h
[1] = tested on: RXF 393 renal
[2] = tested on: EKVX NSCLC
[3] = tested on: DU-145 prostate
[4] = tested on: NCI-H23 lung
[5] = tested on: OVCAR-8 ovarian
[6] = tested on: MOLT-4 leukemia
[7] = tested on: HCT-15 colon
[8] = tested on: HCC-2998 colon
[9] = tested on: COLO 205 colon
[10] = tested on: HL-60(TB) leukemia

Structure (SMILES) | TGI [1] [µM] | TGI [2] [µM] | TGI [3] [µM] | TGI [4] [µM] | TGI [5] [µM] | TGI [6] [µM] | TGI [7] [µM] | TGI [8] [µM] | TGI [9] [µM] | TGI [10] [µM] | GI50 [1] [nM] | GI50 [5] [nM] | GI50 [6] | GI50 [7] | GI50 [8] [nM] | GI50 [10] [nM]
CC(NC(=O)C(N)CC(=O)O)NC(=O)N1CCCC1 (configuration not stated) | > 100 | > 100 | > 100 | > 100 | > 100 | > 100 | > 100 | > 100 | > 100 | – | – | – | – | – | – | –
Cc1cc(-c2ccccc2)cc2[n+]1CC=C2 | 97.6 | > 100 | – | > 100 | > 100 | – | – | > 100 | > 100 | > 100 | – | – | – | – | – | –
CCCCOC(=O)C1CN2C(=NC1(C(F)(F)F)C(F)(F)F)Sc1ccccc12 (configuration not stated) | 63.4 | > 100 | > 100 | > 100 | > 100 | 84.6 | > 100 | – | > 100 | 68.9 | – | – | – | – | – | –
CC(C)(C)NC1C2CCC(C)(C1O)C2(C)C (configuration not stated) | > 100 | > 100 | > 100 | > 100 | > 100 | > 100 | > 100 | > 100 | > 100 | – | – | – | – | – | – | –
CCOC(=O)C1(Cc2ccccc2)Cc2ccccc2C1=O (configuration not stated) | – | 97.8 | > 100 | 69.9 | > 100 | 57.5 | > 100 | > 100 | 37.7 | > 100 | – | – | – | – | – | –
CCn1cnc2c(NC(C)=O)ncnc21 | > 100 | > 100 | > 100 | > 100 | > 100 | > 100 | > 100 | > 100 | > 100 | – | – | – | – | – | – | –
COc1ccc(-c2nnc(CCCCCCCCc3nnc(-c4ccc(OC)cc4)o3)o2)cc1 | – | > 100 | > 100 | > 100 | > 100 | > 100 | > 100 | > 100 | > 100 | > 100 | – | – | – | – | – | –
CC(C)(O)[C@H](CCO)O[Si](c1ccccc1)(c1ccccc1)C(C)(C)C | – | 29.6 | – | – | 23.8 | 20 | 20.7 | 18.1 | 29.6 | 20.1 | – | – | – | – | – | –
COc1cc(C=O)c(-c2cc3c(cc2C=O)OCO3)c(OC)c1OC | 154 | > 290 | – | 222 | > 290 | > 290 | 279 | > 290 | > 290 | > 290 | – | – | – | – | – | –
CC(=O)OC1COC(Nn2c(=O)[nH]c3ccccc3c2=O)C(OC(C)=O)C1OC(C)=O (configuration not stated) | – | > 100 | > 100 | > 100 | > 100 | > 100 | > 100 | – | > 100 | > 100 | – | – | – | – | – | –
CN1CCN(c2ccc(-n3cc(C(=O)O)c(=O)c4cc(F)c(N5CCN(C)CC5)cc43)nc2)CC1 | > 100 | > 100 | > 100 | > 100 | > 100 | > 100 | > 100 | – | > 100 | > 100 | – | – | – | – | – | –
NC(CCCCNC(=O)C(Cc1ccccc1)NC(=O)OCc1ccccc1)C(=O)NC(CCCCNC(=O)C(Cc1ccccc1)NC(=O)OCc1ccccc1)C(=O)NC(CCCCNC(=O)C(Cc1ccccc1)NC(=O)OCc1ccccc1)C(=O)NC(CCCCNC(=O)C(Cc1ccccc1)NC(=O)OCc1ccccc1)C(=O)NC(CCCCNC(=O)C(Cc1ccccc1)NC(=O)OCc1ccccc1)C(=O)NC(CCCCNC(=O)C(Cc1ccccc1)NC(=O)OCc1ccccc1)C(=O)O (configuration not stated) | – | – | > 100 | > 100 | > 100 | > 100 | > 100 | > 100 | – | > 100 | – | – | – | – | – | –
Cc1n[nH]c(=O)n1N1C(=O)c2ccccc2C1=O | – | > 100 | > 100 | > 100 | > 100 | > 100 | > 100 | > 100 | > 100 | – | – | – | – | – | – | –
CC1=NN(C(=O)Cc2ccccc2)C(=O)/C1=C\c1ccco1 | – | > 100 | – | > 100 | > 100 | > 100 | > 100 | > 100 | > 100 | > 100 | – | – | – | – | – | –
CN(C(=O)c1cccs1)C(=S)N1CCN(c2ccccc2)CC1 | > 100 | – | > 100 | > 100 | > 100 | > 100 | > 100 | > 100 | > 100 | > 100 | – | – | – | – | – | –
COc1cc([C@@H]2c3cc4c(c(O)c3C[C@H]3COC(=O)[C@@H]32)OCO4)cc(OC)c1O | – | > 92.8 | – | 0.637 | > 200 | 0.0374 | > 9.28 | 2 | 0.174 | 0.0066 | 2.15 | 5.3 | 3.84 nM and 27.4 nM | 3.48 nM and 26.5 nM | 28.3 | 2.41
[N-]=[N+]=NC1=C(c2ccccc2)C(=O)c2cccc3cccc1c23 | 60.6 | – | > 100 | > 100 | – | 21.1 | > 100 | > 100 | > 100 | > 100 | – | – | – | – | – | –
C[C@@H]1OC(=O)/C(=C\N(C)C)[C@H]2CC(=O)N(CCc3cn(S(=O)(=O)C(F)(F)F)c4ccccc34)C[C@H]12 | > 100 | > 100 | – | > 100 | – | > 100 | > 100 | > 100 | > 100 | – | – | – | – | – | – | –
CCOC(=O)c1cc(-c2ccc(Cl)cc2)c([N+](=O)[O-])n1C | – | > 10 | > 10 | > 10 | > 10 | > 10 | > 10 | > 10 | – | > 10 | – | – | – | – | – | –
Cc1cc(NCCCCCCNc2cc(C)nc3ccc(Cl)cc23)c2cc(Cl)ccc2n1 | 30.6 | 30.4 | – | 30.7 | 39.1 | > 100 | 33.1 | 30.3 | 32.3 | 47.8 | – | – | – | – | – | –
COC(=O)NN1C(=O)C(=P(c2ccccc2)(c2ccccc2)c2ccccc2)C(C(=O)OC)=C1C | – | > 100 | – | > 100 | > 100 | > 100 | > 100 | – | > 100 | > 100 | – | – | – | – | – | –
COc1ccc([C@@H]2CC(=O)NCCCCNCCCN2)cc1 | > 100 | > 100 | – | > 100 | > 100 | > 100 | > 100 | – | > 100 | > 100 | – | – | – | – | – | –
